In article PMC3378510 (Nature immunology, 2012):

Columns and labels:
1E6 CD8^+ T cell clone = test: Peptide mutagenesis scan of 1E6 T cells, TNF secretion; format: cell-based, human; settings: compared with index peptide; peptide 1 μg/ml, 16 hr
[1] = test system: 1E6 clone, in the context of HLA A*0201; settings: compared with preproinsulin-derived peptide ALWGPDPAAA; cited from earlier work

Row | Substance | TNF response / activation, in words (1E6 CD8^+ T cell clone) | agonist potency, in words [1]
1 | Q: L Position 2: ALWGPDPAAA with L2 mutated to Q (AQWGPDPAAA) | larger responses compared with the index peptide | –
2 | R: A Position 1: ALWGPDPAAA with A1 mutated to R (RLWGPDPAAA) | larger responses compared with the index peptide | –
3 | RQFGPDFPTI | – | most potent peptide identified
